Laboratory results as given in patent US20100004243A1, “PHARMACEUTICAL COMPOUNDS” (Astex Therapeutics Limited, priority 2006, published 2010).

Experiments:
CDK4/CyclinD1 = molecular target: T1, CDK4/CyclinD1 (Homo sapiens, UniProt P11802); assay: CDK4 kinase inhibitory activity assay (IC50); type: biochemical; settings: read-out: IC50 against CDK4
T1 construct: purchased Proqinase
Experimental: Assays for CDK4 inhibitory activity can be carried out using the proprietary 33 PanQinase® Activity Assay of Proqinase GmbH, Freiburg, Germany. The assays are performed in 96 well FlashPlates™ (PerkinElmer). In each case, the reaction cocktail (50 μl final volume) is composed of; 20 μl assay buffer (final composition 60 mM HEPES-NaOH, pH 7.5, 3 mM MgCl2, 3 μM Na-orthovanadate, 1.2 mM DTT, 50 μg/ml PEG2000, 5 μl ATP solution (final concentration 1 μM [γ-33P]-ATP (approx 5×10^5 cpm per well)), 5 μl test compound (in 10% DMSO), 10 μl substrate/10 μl enzyme solution (premixed). The final amounts of enzyme and substrate are as below.
The reaction cocktail is incubated at 30° C. for 80 minutes. The reaction is stopped with 50 μl of 2% H3PO4, plates are aspirated and washed twice with 200 μl 0.9% NaCl. Incorporation of ^33P is determined with a microplate scintillation counter. Background values are subtracted from the data before calculating the residual activities for each well. IC50s are calculated using Prism 3.03.
Compounds of the invention can be tested for kinase inhibitory activity using the following protocol.
CDK4/CyclinD1 (Proqinase) is diluted to 12.5 nM in 5 mM Tris pH 7.5, 2.5 mM MgCl2, 25 μM EDTA, 2.5 m M DTT and 125 μM ATP. 10 μl of the enzyme solution is mixed with 10 μl of 100 μl biotin -KAPLSPKKAK4 (Altabioscience, 1 mM stock—10 mg in 2,250 μl H20), 900 μl H2O, 1 μl 10% triton and 35 μCi γ^33P-ATP) and added to 96 well plates along with 5 μl of various dilutions of the test compound in DMSO (up to 4%). The reaction is allowed to proceed for 2 hours before being stopped with an excess of ortho-phosphoric acid (20 μl at 2%).
γ^33P-ATP which remains unincorporated into the biotin -KAPLSPKKAK4 is separated from phosphorylated biotin -KAPLSPKKAK4 on a Millipore MAPH filter plate. The wells of the MAPH plate are wetted with 0.5% orthophosphoric acid, and then the results of the reaction are filtered with a Millipore vacuum filtration unit through the wells. Following filtration, the residue is washed twice with 200 μl of 0.5% orthophosphoric acid. Once the filters have dried, 20 μl of Microscint 20 scintillant is added, and then counted on a Packard Topcount for 30 seconds.
The % inhibition of the CDK4 activity is calculated and plotted in order to determine the concentration of test compound required to inhibit 50% of the CDK4 activity (IC50).

CDK2/CyclinA = CDK2/CyclinA (Homo sapiens, UniProt P24941); assay: Activated CDK2/CyclinA kinase inhibitory activity assay, compared with CDK4; type: biochemical
Experimental: Compounds of the invention were tested for kinase inhibitory activity using the following protocol.
Activated CDK2/CyclinA (Brown et al, Nat. Cell Biol., 1, pp 438-443, 1999; Lowe, E. D., et al Biochemistry, 41, pp 15625-15634, 2002) is diluted to 125 pM in 2.5× strength assay buffer (50 mM MOPS pH 7.2, 62.5 mM β-glycerophosphate, 12.5 mM EDTA, 37.5 mM MgCl2, […], 2.5 mM DTT, 2.5 mM sodium orthovanadate, 0.25 mg/ml bovine serum albumin), and 10 μl mixed with 10 μl of histone substrate mix (60 μl bovine histone Hi (Upstate Biotechnology, 5 mg/ml), 940 μl H2O, 35 μCi γ^33P-ATP) and added to 96 well plates along with 5 μl of various dilutions of the test compound in DMSO (up to 2.5%). The reaction is allowed to proceed for 2 to 4 hours before being stopped with an excess of orthophosphoric acid (5 μl at 2%). γ^33P-ATP which remains unincorporated into the histone H1 is separated from phosphorylated histone H1 on a Millipore MAPH filter plate. The wells of the MAPH plate are wetted with 0.5% orthophosphoric acid, and then the results of the reaction are filtered with a Millipore vacuum filtration unit through the wells. Following filtration, the residue is washed twice with 200 μl of 0.5% orthophosphoric acid. Once the filters have dried, 20 μl of Microscint 20 scintillant is added, and then counted on a Packard Topcount for 30 seconds.
The % inhibition of the CDK2 activity is calculated and plotted in order to determine the concentration of test compound required to inhibit 50% of the CDK2 activity (IC50).

T1 sequence (P11802 whole entry): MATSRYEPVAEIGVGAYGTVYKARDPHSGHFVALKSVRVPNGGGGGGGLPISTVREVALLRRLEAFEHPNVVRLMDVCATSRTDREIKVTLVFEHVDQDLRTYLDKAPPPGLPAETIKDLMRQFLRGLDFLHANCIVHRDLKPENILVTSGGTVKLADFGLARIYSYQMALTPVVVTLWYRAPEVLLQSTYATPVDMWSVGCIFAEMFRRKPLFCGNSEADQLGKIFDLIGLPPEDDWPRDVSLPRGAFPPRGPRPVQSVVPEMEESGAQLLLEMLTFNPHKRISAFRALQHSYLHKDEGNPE
T1 sequence (P24385 whole entry partner): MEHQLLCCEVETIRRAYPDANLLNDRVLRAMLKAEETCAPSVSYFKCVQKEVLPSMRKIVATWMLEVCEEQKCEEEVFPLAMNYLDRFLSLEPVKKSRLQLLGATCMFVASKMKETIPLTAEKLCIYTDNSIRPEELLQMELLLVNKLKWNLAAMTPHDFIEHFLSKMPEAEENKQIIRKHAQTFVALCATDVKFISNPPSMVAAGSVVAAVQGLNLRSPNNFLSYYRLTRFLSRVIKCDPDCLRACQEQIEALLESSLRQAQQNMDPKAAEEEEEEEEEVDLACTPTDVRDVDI

**Q.** With `O=C(Nc1nnc(CCN2CCCCC2)s1)c1n[nH]cc1NC(=O)c1c(F)cccc1F` [Example 1] as the compound, how does the IC50 (CDK4/CyclinD1) read?
**A.** < 5000 nM

**Q.** `O=C(Nc1ccc(N2CCNCC2)cn1)c1n[nH]cc1NC(=O)c1c(Cl)cccc1Cl` [Example 7] was tested. Which “selectivity for CDK4 relative to CDK2 (in words)” value (CDK2/CyclinA) did it give?
**A.** selective for CDK4 relative to CDK2

**Q.** And the IC50 (CDK4/CyclinD1)?
**A.** < 100 nM

**Q.** Which results are given for `CN(C)C1CCN(c2ccc(NC(=O)c3n[nH]cc3NC(=O)c3c(F)cccc3F)nc2)CC1` [Example 8]?
**A.** selectivity for CDK4 relative to CDK2 (in words) (CDK2/CyclinA): selective for CDK4 relative to CDK2; IC50 (CDK4/CyclinD1): < 100 nM

**Q.** What does the source list for `CN(C)C1CCN(c2ccc(NC(=O)c3n[nH]cc3NC(=O)c3c(F)cccc3F)cc2)CC1` [Example 9]?
**A.** selectivity for CDK4 relative to CDK2 (in words) (CDK2/CyclinA): selective for CDK4 relative to CDK2; IC50 (CDK4/CyclinD1): < 100 nM

**Q.** With `O=C(Nc1ccc(N2CCNCC2)cn1)c1n[nH]cc1NC(=O)c1c(F)cccc1F` [Example 10] as the compound, how does the “selectivity for CDK4 relative to CDK2 (in words)” value (CDK2/CyclinA) read?
**A.** selective for CDK4 relative to CDK2

**Q.** What about the IC50 (CDK4/CyclinD1) of the same compound?
**A.** < 100 nM
